From PubChem BioAssay (NCI)
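1) Cells in 96-well plates. 2) Compound, 48 h, 5 concentrations. 3) Linear interpolation between surrounding doses. 4) Unreached endpoint = highest concentration. GI50 = concentration required for 50% inhibition of growth. TGI denotes the concentration required for complete inhibition of growth.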

Assays:
Assay in all cases: DTP human tumour cell line panel, 48 h
[1] = test system: BT-549 breast
[2] = test system: SN12C renal
[3] = test system: IGROV1 ovarian
[4] = test system: UO-31 renal
[5] = test system: NCI-H460 lung
[6] = test system: SNB-75 CNS
[7] = test system: CAKI-1 renal
[8] = test system: T-47D breast
[9] = test system: HT29 colon
[10] = test system: KM12 colon
[11] = test system: HCT-15 colon
[12] = test system: COLO 205 colon
[13] = test system: DU-145 prostate
[14] = test system: SR leukemia
[15] = test system: SK-OV-3 ovarian
[16] = test system: PC-3 prostate
[17] = test system: SF-295 CNS
[18] = test system: MCF7 breast
[19] = test system: M14 melanoma
[20] = test system: SF-539 CNS
[21] = test system: A549 NSCLC
[22] = test system: HOP-62 NSCLC
[23] = test system: ACHN renal
[24] = test system: NCI-H522 lung
[25] = test system: UACC-62 melanoma
[26] = test system: NCI-H226 lung
[27] = test system: MDA-MB-435
[28] = test system: SK-MEL-5 melanoma
[29] = test system: OVCAR-5 ovarian
[30] = test system: HCC-2998 colon
[31] = test system: EKVX NSCLC
[32] = test system: NCI-H23 lung
[33] = test system: HCT-116 colon
[34] = test system: HOP-92 NSCLC
[35] = test system: HL-60(TB) leukemia
[36] = test system: U251 CNS
[37] = test system: SF-268 CNS
[38] = test system: OVCAR-4 ovarian
[39] = test system: NCI/ADR-RES ovarian
[40] = test system: RXF 393 renal
[41] = test system: A498 renal
[42] = test system: SK-MEL-28 melanoma
[43] = test system: K-562 leukemia
[44] = test system: OVCAR-8 ovarian
[45] = test system: TK-10 renal
[46] = test system: UACC-257 melanoma
[47] = test system: SK-MEL-2 melanoma
[48] = test system: OVCAR-3 ovarian
[49] = test system: MDA-MB-468 breast
[50] = test system: SNB-19 CNS
[51] = test system: MALME-3M melanoma
[52] = test system: RPMI-8226 leukemia
[53] = test system: 786-0 renal
[54] = test system: CCRF-CEM leukemia
[55] = test system: MOLT-4 leukemia

## C=C1CC[C@@H]2[C@]3(C)COC(c4cn[nH]c4-c4ccc(F)cc4)O[C@@H]3CC[C@@]2(C)[C@@H]1C/C=C1/C(=O)OCC1O (stereo not given in full)
[1]
  GI50: 13.4 µM
  TGI: 27.5 µM
[2]
  GI50: 15.4 µM
  TGI: 29.6 µM
[3]
  GI50: 16.4 µM
  TGI: 30.6 µM
[4]
  GI50: 13.7 µM
  TGI: 26.6 µM
[5]
  GI50: 19.7 µM
  TGI: 42.7 µM
[6]
  GI50: 14.1 µM
  TGI: 43.8 µM
[7]
  GI50: 21.5 µM
  TGI: 50 µM
[8]
  GI50: 15.7 µM
  TGI: 47.7 µM
[9]
  GI50: 16.4 µM
  TGI: 30.2 µM
[10]
  GI50: 22.5 µM
  TGI: 57 µM
[11]
  GI50: 14.9 µM
  TGI: 30.5 µM
[12]
  GI50: 18.2 µM
  TGI: 35 µM
[13]
  GI50: 19.6 µM
  TGI: 43.5 µM
[14]
  GI50: 16.7 µM
  TGI: 56.4 µM
[15]
  GI50: 21.8 µM
  TGI: 43.5 µM
[16]
  GI50: 15.6 µM
  TGI: 43.9 µM
[17]
  GI50: 16.6 µM
  TGI: 30.7 µM
[18]
  GI50: 7.52 µM
  TGI: 22 µM
[19]
  GI50: 16.5 µM
  TGI: 34.1 µM
[20]
  GI50: 14.5 µM
  TGI: 27.6 µM
[21]
  GI50: 21.4 µM
  TGI: 62.2 µM
[22]
  GI50: 18.1 µM
  TGI: 34.4 µM
[23]
  GI50: 15.1 µM
  TGI: 28.4 µM
[24]
  GI50: 16.7 µM
  TGI: 30.9 µM
[25]
  GI50: 14.3 µM
  TGI: 27.3 µM
[26]
  GI50: 13.1 µM
  TGI: 27.6 µM
[27]
  GI50: 20.8 µM
  TGI: 52.9 µM
[28]
  GI50: 15.5 µM
  TGI: 28.9 µM
[29]
  GI50: 18.2 µM
  TGI: 32.2 µM
[30]
  GI50: 16.3 µM
  TGI: 29.8 µM
[31]
  GI50: 13.5 µM
  TGI: 26.3 µM
[32]
  GI50: 15.6 µM
  TGI: 29.9 µM
[33]
  GI50: 14.9 µM
  TGI: 28.1 µM
[34]
  GI50: 14.7 µM
  TGI: 34.9 µM
[35]
  GI50: 12.8 µM
  TGI: 40.2 µM
[36]
  GI50: 12.9 µM
  TGI: 30.5 µM
[37]
  GI50: 20.7 µM
  TGI: 74.9 µM
[38]
  GI50: 27.5 µM
  TGI: > 100 µM
[39]
  GI50: 17.7 µM
  TGI: 85.9 µM
[40]
  GI50: 13.7 µM
  TGI: 27 µM
[41]
  GI50: 17 µM
  TGI: 30.7 µM
[42]
  GI50: 16.8 µM
  TGI: 30.4 µM
[43]
  GI50: 13.1 µM
  TGI: 49.6 µM
[44]
  GI50: 23.3 µM
  TGI: > 100 µM
[45]
  GI50: 19 µM
  TGI: 33 µM
[46]
  GI50: 22.3 µM
  TGI: 69.2 µM
[47]
  GI50: 16.5 µM
  TGI: 31.6 µM
[48]
  GI50: 15.9 µM
  TGI: 32.9 µM
[49]
  GI50: 11.9 µM
  TGI: 24.6 µM
[50]
  GI50: 16 µM
  TGI: 29.5 µM
[51]
  GI50: 16 µM
  TGI: 30 µM
[52]
  GI50: 11.5 µM
  TGI: 60.8 µM
[53]
  GI50: 16.6 µM
  TGI: 30.2 µM
[54]
  GI50: 4.6 µM
  TGI: 38.5 µM
[55]
  GI50: 20.2 µM
  TGI: 77.4 µM
